Source: ChEMBL document CHEMBL2086221, “Armeniaspiroles, a new class of antibacterials: Antibacterial activities and total synthesis of 5-chloro-Armeniaspirole A” (Bioorg Med Chem Lett, 2012)
The source made the active and inactive calls. No cut-off for these calls is given here.

Legend:
Streptococcus pneumoniae [1] = assay: Antibacterial activity against penicillin-resistant Streptococcus pneumoniae DSM 11865; format: functional
Staphylococcus aureus [2] = assay: Antibacterial activity against methicillin-resistant Staphylococcus aureus ATCC 33592; format: functional
Enterococcus faecium [3] = assay: Antibacterial activity against vancomycin-resistant Enterococcus faecium DSM 17050; format: functional
Escherichia coli [4] = assay: Antibacterial activity against Escherichia coli ATCC 35218 expressing LacR; format: functional
Pseudomonas aeruginosa [5] = assay: Antibacterial activity against Pseudomonas aeruginosa ATCC 27853; format: functional
Staphylococcus aureus [6] = assay: Antibacterial activity against methicillin-resistant Staphylococcus aureus ATCC 33592 at >1 ug/mL after 48 hrs; format: functional, organism-based
Streptococcus pneumoniae [7] = assay: Antibacterial activity against penicillin-resistant Streptococcus pneumoniae DSM 11865 at >1 ug/mL after 48 hrs; format: functional, organism-based
Enterococcus faecium [8] = assay: Antibacterial activity against vancomycin-resistant Enterococcus faecium DSM 17050 at >1 ug/mL after 48 hrs; format: functional, organism-based
Escherichia coli [9] = assay: Antibacterial activity against Escherichia coli ATCC 35218 expressing LacR at >1 ug/mL after 48 hrs; format: functional, organism-based
Pseudomonas aeruginosa [10] = assay: Antibacterial activity against Pseudomonas aeruginosa ATCC 27853 at >1 ug/mL after 48 hrs; format: functional, organism-based
Staphylococcus aureus [11] = assay: Bacteriostatic activity against methicillin-resistant Staphylococcus aureus ATCC 33592 by time kill study in presence of fetal calf serum; format: functional, organism-based
Streptococcus pneumoniae [12] = assay: Bacteriostatic activity against penicillin-resistant Streptococcus pneumoniae DSM 11865 by time kill study in presence of fetal calf serum; format: functional, organism-based
Enterococcus faecium [13] = assay: Bacteriostatic activity against vancomycin-resistant Enterococcus faecium DSM 17050 by time kill study in presence of fetal calf serum; format: functional, organism-based
Escherichia coli [14] = assay: Bacteriostatic activity against Escherichia coli ATCC 35218 expressing LacR by time kill study in presence of fetal calf serum; format: functional, organism-based
Pseudomonas aeruginosa [15] = assay: Bacteriostatic activity against Pseudomonas aeruginosa ATCC 27853 by time kill study in presence of fetal calf serum; format: functional, organism-based
Escherichia coli [16] = assay: Bacteriostatic activity against Escherichia coli ATCC 35218 expressing LacR by time kill study; format: functional, organism-based
Pseudomonas aeruginosa [17] = assay: Bacteriostatic activity against Pseudomonas aeruginosa ATCC 27853 by time kill study; format: functional, organism-based
[18] = Streptococcus pneumoniae, DSM 11865
[19] = Staphylococcus aureus, ATCC 33592
[20] = Enterococcus faecium, DSM 17050

SMILES | IC80 (Streptococcus pneumoniae [1]; [18]) | IC80 (Staphylococcus aureus [2]; [19]) | IC80 (Enterococcus faecium [3]; [20]) | IC80 (Escherichia coli [4]) | IC80 (Pseudomonas aeruginosa [5]) | Activity (Staphylococcus aureus [6]) | Activity (Streptococcus pneumoniae [7]) | Activity (Enterococcus faecium [8]) | Activity (Escherichia coli [9]) | Activity (Pseudomonas aeruginosa [10]) | Activity (Staphylococcus aureus [11]) | Activity (Streptococcus pneumoniae [12]) | Activity (Enterococcus faecium [13]) | Activity (Escherichia coli [14]) | Activity (Pseudomonas aeruginosa [15]) | IC80 (Streptococcus pneumoniae [1]) | Activity (Escherichia coli [16]) | Activity (Pseudomonas aeruginosa [17]) | IC80 (Staphylococcus aureus [2]) | IC80 (Enterococcus faecium [3])
CCCCCCc1c(O)c(Cl)cc2c1O[C@@]1(C2=O)C(Cl)=C(Cl)C(=O)N1C | 0.5 µM | 1.4 µM | 6.7 µM | > 30 µM | > 30 µM | Active | Active | Active | Active | Active | inactive | inactive | inactive | inactive | inactive | – | – | – | – | –
CCCCCCc1c(O)c(Cl)cc2c1OC1(C2=O)C(Cl)=C(Cl)C(=O)N1C (racemic) | 1.3 µM | 3.1 µM | 5.2 µM | > 30 µM | > 30 µM | Active | Active | Active | Active | Active | inactive | inactive | inactive | inactive | inactive | – | – | – | – | –
CCCCCCc1c(O)c(Cl)cc2c1O[C@]1(C2=O)C(Cl)=C(Cl)C(=O)N1C (stereo in doubt; form 1) [listing 1 of 2 here] | – | 5.1 µM | 8.5 µM | > 30 µM | > 30 µM | – | – | – | – | – | – | – | – | – | – | 1.7 µM | – | – | – | –
CCCCCCc1c(O)c(Cl)cc2c1O[C@]1(C2=O)C(Cl)=C(Cl)C(=O)N1C (stereo in doubt; form 1) [listing 2 of 2 here] | – | – | – | – | – | Active | Active | Active | Active | Active | inactive | inactive | inactive | inactive | inactive | – | Dose-dependent effect | Dose-dependent effect | – | –
CCCCCCc1c(O)c(Cl)cc2c1O[C@]1(C2=O)C(Cl)=C(Cl)C(=O)N1C (stereo in doubt; form 2) | – | – | – | – | – | – | – | – | – | – | – | – | – | – | – | 0.4 µM | – | – | 3.7 µM | 8.2 µM
